This passage reports Repellency and logP results from ChEMBL document CHEMBL3045571, “Repellent activity of essential oils and some of their individual constituents against Tribolium castaneum herbst” (J Agric Food Chem, 2011).

The test system of data set [1] is Tribolium castaneum. Nature of the data set: Repellent activity against Tribolium castaneum (red flour beetle) assessed as induction of repellency measured 2 hr post compound exposure at 0.00002 uL/cm2 using 15% compound formulation. Format: functional.
Data set [2] relates to Tribolium castaneum. Nature of the data set: Repellent activity against Tribolium castaneum (red flour beetle) assessed as induction of repellency measured 2 hr post compound exposure at 0.02 uL/cm2 using 15% compound formulation. Format: functional.
Data set [3] relates to Tribolium castaneum. The data set is described as follows: Repellent activity against Tribolium castaneum (red flour beetle) assessed as induction of repellency measured 4 hr post compound exposure at 0.00002 uL/cm2 using 15% compound formulation. Format: functional.
Data set [4] relates to Tribolium castaneum. Nature of the data set: Repellent activity against Tribolium castaneum (red flour beetle) assessed as induction of repellency measured 4 hr post compound exposure at 0.002 uL/cm2 using 15% compound formulation. Format: functional.
The test system of data set [5] is Tribolium castaneum. Nature of the data set: Repellent activity against Tribolium castaneum (red flour beetle) assessed as induction of repellency measured 4 hr post compound exposure at 0.0002 uL/cm2 using 15% compound formulation. Format: functional.
Data set [6] concerns Tribolium castaneum. Nature of the data set: Repellent activity against Tribolium castaneum (red flour beetle) assessed as induction of repellency measured 4 hr post compound exposure at 0.02 uL/cm2 using 15% compound formulation. Format: functional.
Data set [7] has as its system Tribolium castaneum. Nature of the data set: Repellent activity against Tribolium castaneum (red flour beetle) assessed as induction of repellency measured 2 hr post compound exposure at 0.0002 uL/cm2 using 15% compound formulation. Format: functional.
Data set [8] has as its system Tribolium castaneum. The data set is described as follows: Repellent activity against Tribolium castaneum (red flour beetle) assessed as induction of repellency measured 2 hr post compound exposure at 0.2 uL/cm2 using 15% compound formulation. Format: functional.
In data set [9] the test system is Tribolium castaneum. The data set is described as follows: Repellent activity against Tribolium castaneum (red flour beetle) assessed as induction of repellency measured 4 hr post compound exposure at 0.2 uL/cm2 using 15% compound formulation. Format: functional.
In data set [10] the test system is Tribolium castaneum. The data set is described as follows: Repellent activity against Tribolium castaneum (red flour beetle) assessed as induction of repellency measured 2 hr post compound exposure at 0.002 uL/cm2 using 15% compound formulation. Format: functional.
Data set [11] is described as follows: Lipophilicity, logP of the compound. Format: physicochemical. To be noted: octanol/water.

For `Cc1ccc(C(C)C)cc1O` [CARVACROL], the Repellency is given as 8% in data set [1]; 46% in data set [2]; 5% in data set [3]; -6% in data set [4]; 8% in data set [5]; 48% in data set [6]. The Repellency in data set [7] is reported as 9%; in [8] it was 86%; in data set [9] it was 90%; in data set [10] it was -3%.
`C=C(C)[C@H]1CC=C(C)C(=O)C1` [(S)(+)CARVONE]: the Repellency in data set [1] is given as -10%; in data set [2], 91%; in data set [3], -10%; in [4], 30%; in data set [5] it was 21%; in data set [6], 85%. For the same molecule, the Repellency was determined as 45% in data set [7], 96% in data set [8], 94% in [9] and 53% in data set [10]. Also, in data set [11], the logP (in general, the decadic logarithm of the partition coefficient of the neutral form, usually between octanol and water) worked out at 3.07.
On to `O=C(OCc1ccccc1)c1ccccc1` [BENZYL BENZOATE], for which the Repellency is 3% in [1]; 44% in data set [2]; 6% in data set [3]; 23% in [4]; 18% in data set [5]; 44% in data set [6]. For the same molecule, the Repellency was determined as 14% in data set [7], 93% in data set [8], 91% in [9] and 16% in data set [10].
Take `CC(=O)OC/C=C(\C)CCC=C(C)C` [GERANYL ACETATE]: the Repellency in data set [1] is 5%; in data set [2], 60%; in data set [3], 8%; in [4] it was 24%; in [5] it was 23%; in data set [6] it was 63%. Also, the Repellency turned out to be 21% in data set [7], 95% in data set [8], 94% in [9] and 21% in data set [10].
For `C=CC(=C)CCC=C(C)C` [MYRCENE], the Repellency amounted to 28% in [1]; 61% in data set [2]; 25% in data set [3]; 65% in data set [4]; 30% in [5]; 71% in data set [6]. Moreover, the Repellency in data set [7] is 33%; in data set [8], 85%; in data set [9], 93%; in data set [10] it was 56%.
Turning to `Cc1ccc(C(C)C)cc1` [P-CYMENE], the Repellency in data set [1] is -6%; in [2], 61%; in data set [3] it was -5%; in data set [4], 44%; in data set [5] it was -8%; in [6], 45%. In addition, the Repellency in [7] is on record as -10%; in data set [8], 74%; in [9], 69%; in data set [10], 43%.
In the case of `CC(C)=CCC/C(C)=C/C=O` [CITRAL], the Repellency was 18% in [1]; 89% in data set [2]; 21% in [3]; 55% in data set [4]; 51% in data set [5]; 79% in [6]. Moreover, the Repellency in data set [7] amounted to 64%; in [8] it was 98%; in data set [9] it was 98%; in data set [10], 66%.
Take `CC(C)=CCC/C(C)=C\CO` [NEROL]: the Repellency turned out to be 8% in data set [1]; 84% in data set [2]; 8% in data set [3]; 60% in data set [4]; 30% in data set [5]; 75% in [6]. For the same molecule, the Repellency in data set [7] is listed as 39%; in data set [8] it was 98%; in data set [9], 95%; in data set [10], 64%. In addition, the logP in data set [11] amounted to 3.47.
As to `C=C(C)[C@@H]1CC=C(C)C(=O)C1` [L-CARVONE], the Repellency was found to be 21% in data set [1]; 84% in data set [2]; 19% in data set [3]; 68% in data set [4]; 44% in data set [5]; 74% in data set [6]. Besides, the Repellency in [7] turned out to be 35%; in [8], 100%; in data set [9], 95%; in [10], 55%.
`O=C(OCc1ccccc1)c1ccccc1O` [BENZYL SALICYLATE]: the Repellency in data set [1] was -29%; in data set [2], 74%; in [3] it was -34%; in data set [4], 46%; in data set [5] it was 25%; in [6] it was 78%. Besides, the Repellency in [7] came out at 29%; in data set [8] it was 94%; in data set [9], 99%; in data set [10] it was 65%.
As to `CC(C)=CCC/C(C)=C/CO` [GERANIOL], the Repellency in data set [1] was determined as 6%; in data set [2] it was 75%; in data set [3], 4%; in [4], 58%; in data set [5], 35%; in data set [6] it was 74%. In addition, the Repellency came out at 43% in data set [7], 98% in [8], 95% in data set [9] and 64% in data set [10].
On to `CCCCN(CCC(=O)OCC)C(C)=O`, for which the Repellency is 2% in data set [1]; 60% in data set [2]; -6% in [3]; 40% in data set [4]; 4% in [5]; 50% in data set [6]. Moreover, the Repellency in data set [7] turned out to be 16%; in [8], 78%; in [9], 75%; in data set [10], 54%.
For `CC(C)=CCCC(C)CCO` (configuration not stated) [CITRONELLOL], the Repellency in data set [1] came to 30%; in data set [2], 74%; in data set [3], 40%; in data set [4], 60%; in data set [5] it was 43%; in data set [6], 85%. Further, the Repellency in data set [7] amounted to 45%; in [8], 96%; in data set [9] it was 96%; in data set [10], 59%.
